# In patent US4591586A, “6-fluoro-3-[3-(1-heterocyclo)propyl]-1,2-benzisoxazoles for treatment of pain, hypertension and psychoses” (Hoechst-Roussel Pharmaceuticals, priority 1984, dated 1986):
# Where a name gives a salt, the structure may show the parent alone. Read-outs that look alike come from different tables or passages of the source.
# Columns and labels:
# [1] = system: apomorphine-induced climbing; test: climbing mice assay (block of apomorphine-induced climbing), antipsychotic activity; format: in vivo, mice (CK-1 male); settings: Mus musculus, ip; for ED50: read-out: Antipsychotic Activity ED50 value (estimated dose for 50% decrease in climbing scores)
# [2] = system: spontaneous hypertensive rat; test: antihypertensive activity in the spontaneous hypertensive rat, indirect tail cuff method; format: in vivo; settings: 50 mg/kg of body wt, oral, 3 days, measured on third day
# Procedure: According to this procedure, the test compound is administered orally to a group of 5 rats for 3 days in relation to a control group of the same number. The decrease in blood pressure is measured on the third day of administration.
# [3] = system: phenyl-para-quinone induced writhing; test: phenyl-para-quinone writhing assay in mice (analgesia); format: in vivo; settings: for ED50: Mus musculus, read-out: Analgesic Activity ED50 (dose at which 50% of the phenyl-para-quinone induced writhing is inhibited)
# [4] = mice, intraperitoneal, 30 minutes prior to apomorphine 1.5 mg/kg s.c., linear regression
# [5] = mice, 10 mg/kg of body wt, intraperitoneal, 30 minutes prior to apomorphine 1.5 mg/kg s.c., read-out: Antipsychotic Activity (% decrease in climbing score)
# [6] = mice, at 20 mg/kg, subcutaneous
smiles,measurement,setting,value
"CC(O)C1(c2ccccc2)CCN(CCCc2noc3cc(F)ccc23)CC1 (centres unmarked) [1-[3-(6-Fluoro-1,2-benzisoxazol-3-yl)propyl]-4-(1-hydroxyethyl)-4-phenylpiperidine hydrochloride]",inhibition in vivo at 10 mg/kg,[1]; read-out: Antipsychotic Activity (% decrease in climbing score),41%
"CC1CCN(CCCc2noc3cc(F)ccc23)CC1.Cl [4-Methyl-1-[3-(6-fluoro-1,2-benzisoxazol-3-yl)propyl]piperidine hydrochloride]",ED50,[1]; [4],7.6 mg/kg
same,Blood Pressure Decrease (decrease in mean arterial blood pressure),[2],59 mm/mercury
"Cl.Fc1ccc2c(CCCN3CCC(c4ccccc4)CC3)noc2c1 [1-[3-(6-Fluoro-1,2-benzisoxazol-3-yl)propyl]-4-phenylpiperidine hydrochloride]",ED50,"[3]; sc, mice, subcutaneous",1 mg/kg
same,inhibition in vivo at 10 mg/kg,[1]; [5],35%
"Cl.Fc1ccc2c(CCCN3CCC4(CC3)OCCO4)noc2c1 [8-[3-(6-Fluoro-1,2-benzisoxazol-3-yl)propyl]-1,4-dioxa-8-azaspiro[4,5]decane hydrochloride]",ED50,"[3]; sc, mice, subcutaneous",1.4 mg/kg
same,ED50,[1]; [4],6.4 mg/kg
"OC1CCN(CCCc2noc3cc(F)ccc23)CC1 [1-[3-(6-Fluoro-1,2-benzisoxazol-3-yl)propyl]-4-hydroxypiperidine]",percent decrease in writhing at a given dose,[3]; [6],43%
same,ED50,[1]; [4],10.4 mg/kg
"Fc1ccc2c(CCCN3CCOCC3)noc2c1 [1-[3-(6-Fluoro-1,2-benzisoxazol-3-yl)propyl]morpholine oxalate]",ED50,"[3]; sc, mice, subcutaneous",2.2 mg/kg
"CSc1ccc2c(c1)N(CCC1CCCCN1C)c1ccccc1S2 (centres unmarked) [thioridazine, reference compound]",ED50,[1]; [4],3.5 mg/kg
"CC(=O)C1(c2ccccc2)CCN(CCCc2noc3cc(F)ccc23)CC1.Cl [4-Acetyl-1-[3-(6-fluoro-1,2-benzisoxazol-3-yl)propyl]-4-phenylpiperidine hydrochloride]",percent decrease in writhing at a given dose,"[3]; mouse, in vivo, sc, 20 mg/kg",46%
"Cl.Fc1ccc2c(CCCN3CCC(CCCc4ccccc4)CC3)noc2c1 [1-[3-(6-Fluoro-1,2-benzisoxazol-3-yl)propyl]-4-(3-phenylpropyl)piperidine hydrochloride]",inhibition in vivo at 10 mg/kg,[1]; [5],25%
same,Blood Pressure Decrease (decrease in mean arterial blood pressure),[2],40 mm/mercury
"Cl.O=C(c1ccc(F)cc1)C1CCN(CCCc2noc3cc(F)ccc23)CC1 [1-[3-(6-Fluoro-1,2-benzisoxazol-3-yl)propyl]-4-(4-fluorobenzoyl)piperidine hydrochloride]",ED50,"[3]; sc, mice, subcutaneous",0.8 mg/kg
same,inhibition in vivo at 3 mg/kg,"[1]; mice, 3 mg/kg of body wt, intraperitoneal, 30 minutes prior to apomorphine 1.5 mg/kg s.c., read-out: Antipsychotic Activity (% decrease in climbing score)",91%
"Fc1ccc2c(CCCN3CCC(Oc4ccc(Cl)cc4)CC3)noc2c1 [4-(4-Chlorophenoxy)-1-[3-(6-fluoro-1,2-benzisoxazol-3-yl)propyl]-piperidinehydrochloride]",Blood Pressure Decrease (decrease in mean arterial blood pressure),[2],39 mm/mercury
"O=C(CCCN1CCC(O)(c2ccc(Cl)cc2)CC1)c1ccc(F)cc1 [haloperidol, reference compound]",ED50,[1],0.11 mg/kg
"Cl.Fc1ccc2c(CCCN3CCC(Cc4ccccc4)CC3)noc2c1 [4-Benzyl-1-[3-(6-fluoro-1,2-benzisoxazol-3-yl)propyl]piperidine hydrochloride]",inhibition in vivo at 10 mg/kg,[1]; [5],29%
same,Blood Pressure Decrease (decrease in mean arterial blood pressure),[2],71 mm/mercury
"Cl.Fc1ccc2c(CCCN3CCC(Sc4ccccc4)CC3)noc2c1 [1-[3-(6-Fluoro-1,2-benzisoxazol-3-yl)propyl]-4-phenylthiopiperidine hydrochloride]",ED50,"[3]; sc, mice, subcutaneous",4.4 mg/kg
same,inhibition in vivo at 10 mg/kg,[1]; [5],27%
"Fc1ccc2c(CCCN3CCCCCC3)noc2c1.O=C(O)C(=O)O [1-[3-(6-Fluoro-1,2-benzisoxazol-3-yl)propyl]-2,3,4,5,6,7-hexahydroazepine oxalate]",ED50,"[3]; sc, mice, subcutaneous",1.3 mg/kg
same,inhibition in vivo at 10 mg/kg,[1]; [5],27%
"CCC(=O)O[C@](Cc1ccccc1)(c1ccccc1)[C@H](C)CN(C)C [propoxyphene, reference compound]",ED50,[3]; sc,3.9 mg/kg
"O=C(NC1CCN(CCCc2noc3cc(F)ccc23)CC1)c1ccccc1 [4-Benzamido-1-[3-(6-fluoro-1,2-benzisoxazol-3-yl)propyl]-piperidine]",ED50,"[3]; sc, mice, subcutaneous",0.6 mg/kg
same,inhibition in vivo at 10 mg/kg,[1]; [5],49%
same,Blood Pressure Decrease (decrease in mean arterial blood pressure),[2],44 mm/mercury
"Cl.Fc1ccc2c(CCCN3CCCCC3)noc2c1 [1-[3-(6-Fluoro-1,2-benzisoxazol-3-yl)propyl]piperidine hydrochloride]",ED50,"[3]; sc, mice, subcutaneous",0.6 mg/kg
same,Blood Pressure Decrease (decrease in mean arterial blood pressure),[2],30 mm/mercury
"Cl.Fc1ccc2c(CCCN3CCC(Oc4ccc(C(F)(F)F)cc4)CC3)noc2c1 [1-[3-(6-Fluoro-1,2-benzisoxazol-3-yl)propyl]-4-(4-trifluoromethylphenoxy)piperidine hydrochloride]",Blood Pressure Decrease (decrease in mean arterial blood pressure),[2],35 mm/mercury
"Fc1ccc2c(CCCN3CCCC3)noc2c1.O=C(O)C(=O)O [1-[3-(6-Fluoro-1,2-benzisoxazol-3-yl)propyl]pyrrolidine oxalate]",ED50,"[3]; sc, mice, subcutaneous",1.2 mg/kg
"CC(C)=CCN1CCC2(C)c3cc(O)ccc3CC1C2C (centres unmarked) [pentazocine, reference compound]",ED50,[3]; sc,1.3 mg/kg
"Fc1ccc2c(CCCN3CCc4ccccc4C3)noc2c1 [2-[3-(6-Fluoro-1,2-benzisoxazol-3-yl)propyl]-1,2,3,4-tetrahydroisoquinolinehydrochloride]",percent decrease in writhing at a given dose,[3]; [6],69%
"N=C(N)NCCN1CCCCCCC1 [guanethidine, reference compound]",Blood Pressure Decrease (decrease in mean arterial blood pressure),[2],20 mm/mercury
"Cl.Fc1ccc2c(CCCN3CCC(Oc4ccc(Cl)c(Cl)c4)CC3)noc2c1 [1-[3-(6-Fluoro-1,2-benzisoxazol-3-yl)propyl]-4-(3,4-dichlorophenoxy)piperidine hydrochloride]",percent decrease in writhing at a given dose,[3]; [6],49%
"Fc1ccc2c(CCCNN3CCCCC3)noc2c1 [6-Fluoro-3-{3-[N-(1-piperidino)aminopropyl}-1,2-benzisoxazole oxalate]",ED50,"[3]; sc, mice, subcutaneous",5 mg/kg
same,inhibition in vivo at 10 mg/kg,[1]; [5],36%
